Drawing on US9328093B2, “Selective inhibitors of ubiquitin specific protease 7, the pharmaceutical compositions thereof and their therapeutic applications” (HYBRIGENICS SA, priority 2010, dated 2016), this text covers IC50 and GI50 for nine compounds.

For assay [1], the target named is T1, UCH-L3 (Homo sapiens, UniProt P15374).
T1 sequence (P15374 1-230): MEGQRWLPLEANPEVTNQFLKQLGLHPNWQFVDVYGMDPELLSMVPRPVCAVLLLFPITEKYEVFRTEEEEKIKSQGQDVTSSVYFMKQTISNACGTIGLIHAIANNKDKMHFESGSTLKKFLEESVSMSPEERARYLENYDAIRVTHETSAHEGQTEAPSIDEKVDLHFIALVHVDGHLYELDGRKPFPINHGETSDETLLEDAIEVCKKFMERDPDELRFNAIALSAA
In words: UCH-L3 activity assay (Ub-AMC substrate). The class given is biochemical. Particulars: Ub-AMC 300 nM, UCH-L3 13 pM. Here is the method: UCH-L3 was diluted in USP buffer (50 mM Tris HCl; 0.5 mM EDTA; 5 mM DTT; 0.01% Triton X-100; Bovine Serum Albumin 0.05 mg·ml^−1 pH7.6). Compounds stocks (100 mM) were stored at −20° C. in DMSO. Compounds were tested at different concentrations: from 200 μM to 91 nM.
(§1) Reactions were performed as duplicates in Black 384 well plates (small volume microplates; Greiner; 10 μl final reaction volume). The substrate concentration for UCH-L3 was 300 nM Ub-AMC (Boston Biochem). The concentration of the enzyme (UCH-L3) in specificity assays was 13 pM. The concentrations were determined in order to perform specificity assays under initial velocities at fixed substrate concentration. Compounds were pre-incubated with enzymes for 30 minutes at 25° C. Reactions were initiated by addition of substrate to the plates containing the enzymes (+/− compounds) diluted in assay buffer. Reactions were incubated for 60 minutes at 37° C. Reactions were stopped by adding acetic acid (100 mM final). Readings were performed on a Pherastar Fluorescent Reader (BMG). λ Emission 380 nm; λ Excitation=460 nm. Data (mean values +/− standard deviation) were analyzed as % of control (no compound) and plotted as percentage versus the Log of the compound concentration using GraphPad (Prism). Data were fitted to a sigmoidal model (variable slope).

Assay [2] has as its target T2, Caspase 3 (Homo sapiens, UniProt P42574).
T2 sequence (P42574 29-175 limits assumed): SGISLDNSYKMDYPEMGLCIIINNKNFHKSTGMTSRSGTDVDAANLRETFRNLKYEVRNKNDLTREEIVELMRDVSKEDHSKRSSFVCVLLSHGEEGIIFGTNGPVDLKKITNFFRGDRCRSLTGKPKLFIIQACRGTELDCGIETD
T2 sequence (P42574 176-277 limits assumed): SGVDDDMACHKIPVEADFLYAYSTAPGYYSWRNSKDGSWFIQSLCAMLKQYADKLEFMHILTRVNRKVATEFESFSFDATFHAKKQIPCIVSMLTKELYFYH
As to the kind of experiment: Caspase 3 activity assay (Ac-DEVD-AMC substrate). In kind it is biochemical. Particulars: Ac-DEVD-AMC 250 nM, Caspase 3 1.6 nM. Here is the method: Caspase 3 was diluted in Caspase 3 buffer (100 mM Hepes pH 7.5; 10% sucrose; 0.1% CHAPS). Compounds stocks (100 mM) were stored at −20° C. in DMSO. Compounds were tested at different concentrations: from 200 μM to 91 nM.
as §1, with “caspase 3 specificity assay” for “UCH-L3”, “250” for “300”, “(Ac-DEVD-AMC; Promega).” for “Ub-AMC (Boston Biochem).”, “(Caspase 3)” for “(UCH-L3)”, “1.6 nM.” for “13 pM.”, “values+/−” for “values +/−”

Assay [3] relates to HCT116 colon cancer cells. In words: HCT116 cell viability and proliferation assay (MTS). The class given is cell-based. Particulars: Homo sapiens, HCT-116, 72 h, HCT116, 72 hours, read-out: Cell viability (MTS): HCT116 GI50 Day3. The gist of the method:
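HCT116 cells (10^3/well) treated in triplicate 24 h after seeding with 50 nM–100 μM compound, 0.5% final DMSO, for 72 h at 37 °C. Viability by MTS (2 h), absorbance 492 nm; GI50 from sigmoidal variable-slope fit, mean of three independent experiments.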

The structures appear in SMILES notation. A value given as a limit tells only on which side of the number the result lay.

`CC1CCCCN1CCCNC(=O)c1ccc2c(Cl)c3c(nc2c1)CCCC3` (stereo not drawn) [Example 20, 9-chloro-N-(3-(2-methylpiperidin-1-yl)propyl)-516,7,8-tetrahydroacridine-3-carboxamide]: the half-maximal inhibitory concentration (IC50) in assay [1] and in assay [2] was more than 200 µM in each case. In addition, in assay [3], the GI50 (in general, the concentration giving 50% growth inhibition) came to 8.4 µM.
With `O=C(NCC1CCNCC1)c1ccc2c(Cl)c3c(nc2c1)CCCC3` [Example 24, 9-chloro-N-((piperidin-4-yl)methyl)-5,6,7,8-tetrahydroacridine-3-carboxamide], the IC50 in assay [1] and in assay [2] was more than 200 µM in each case. Further, the concentration for 50% growth inhibition (GI50) in assay [3] amounted to 8.3 µM.
With `CN(C)c1ccc(CN2CCC(CNC(=O)c3ccc4c(Cl)c5c(nc4c3)CCCC5)CC2)cc1` [Example 23], the IC50 in assay [1] and in assay [2] was more than 200 µM each time. Also, the 50% growth inhibitory concentration (GI50) in assay [3] was found to be 1.8 µM.
As to `COc1ccc(CN2CCC(CNC(=O)c3ccc4c(Cl)c5c(nc4c3)CCCC5)CC2)cc1` [Example 22, 9-chloro-N-((1-(4-methoxybenzyl)piperidin-4-yl)methyl)-5,6,7,8-tetrahydroacridine-3-carboxamide], the half-maximal inhibitory concentration (IC50) in assay [1] and in assay [2] was more than 200 µM each time. Also, the 50% growth inhibitory concentration (GI50) in assay [3] stood at 3.3 µM.
With `O=C(NCc1ccc(CN2CCCC2)cc1)c1ccc2c(Cl)c3c(nc2c1)CCCC3` [Example 21, 9-chloro-N-(4-(pyrrolidin-1-ylmethyl)benzyl)-5,6,7,8-tetrahydroacridine-3-carboxamide], the IC50 in assay [1] and in assay [2] was more than 200 µM in each case. For the same compound, the GI50 in assay [3] stood at 3.5 µM.
Turning to `CN1CCCC1CCNC(=O)c1ccc2c(Cl)c3c(nc2c1)CCCC3` (stereo not drawn) [Example 17, 9-chloro-N-(2-(1-methylpyrrolidin-2-yl)ethyl)-5,6,7,8-tetrahydroacridino-3-carboxamide], the 50% inhibitory concentration (IC50) in assay [1] and in assay [2] was more than 200 µM throughout. Also, the GI50 in assay [3] was 6.9 µM.
Take `O=C(NCC(CN1CCCC1)C(O)c1ccccc1)c1ccc2c(Cl)c3c(nc2c1)CCCC3` (stereo not drawn) [Example 25, 9-chloro-N-(3-hydroxy-3-phenyl-2-pyrrolidin-1-ylmethylpropyl)-5,6,7,8-tetrahydroacridine-3-carboxamide]: the IC50 in assay [1] and in assay [2] was more than 200 µM in each case. Moreover, the 50% growth inhibitory concentration (GI50) in assay [3] came out at 5.6 µM.
In the case of `O=C(Nc1cccc(CN2CCCC2)c1)c1ccc2c(Cl)c3c(nc2c1)CCCC3` [Example 19, 9-chloro-N-(3-(pyrrolidin-1-ylmethyl)phenyl)-5.6,7,8-tetrahydroacridine-3-carboxamide], the IC50 in assay [1] and in assay [2] was more than 200 µM in each case. Also, the 50% growth inhibitory concentration (GI50) in assay [3] turned out to be 4.1 µM.
Consider `O=C(NCc1cccc(CN2CCCC2)c1)c1ccc2c(Cl)c3c(nc2c1)CCCC3` [Example 18, 9-chloro-N-(3-(pyrrolidin-1-ylmethyl)benzyl)-5,6,7,8-tetrahydroacridine-3-carboxamide], for which the 50% inhibitory concentration (IC50) in assay [1] and in assay [2] was more than 200 µM each time. Further, the 50% growth inhibitory concentration (GI50) in assay [3] worked out at 4.3 µM.
